Experiments:
[1] = target: T1, aldose reductase (Rattus norvegicus, UniProt P07943); test: In vitro study: inhibition of aldose reductase; assay type: biochemical, male Wistar rats; settings: rat crystallin enzyme, NADPH, L-glyceraldehyde, 340 nm; confidence interval in parentheses
T1 construct: The aldose reductase used is obtained from crystallins from male Wistar rats; from tissue; host or cells: eye lens of male Wistar rats, enzymatic extract
Experimental: 1) In vitro study: inhibition of aldose reductase
The aldose reductase used is obtained from crystallins from male Wistar rats according to a modification of the method of S. Hayman et al. (Journal of Biological Chemistry, 240, p. 877, 1965). The enzymatic extract is diluted in a phosphate buffer in the presence of NADPH and of various concentrations of the products to be tested. The reaction is triggered by L-glyceraldehyde and the rate of reaction is measured by monitoring the disappearance of NADPH by spectrophotometry at 340 nm. The inhibition of the rate of reaction is calculated for each concentration of products and then the concentration necessary for a 50% inhibition (IC50) is evaluated by linear interpolation.

[2] = system: level of sorbitol in the crystallins; test: In vivo study: reduction in the accumulation of sorbitol in streptozotocin-diabetic rats; parameters: species or system male Wistar rats; settings: Rattus norvegicus, oral, 4, 30 and 52 h after streptozotocin (60 mg/kg i.v.), 50% reduction, confidence interval in parentheses
Experimental: 2) In vivo study: reduction in the accumulation of sorbitol
Male Wistar rats, weighing 200 to 250 g, are made diabetic by intravenous injection of streptozotocin (60 mg/kg). They then receive an oral treatment of the products to be tested, in the form of a 10% suspension in gum arabic, 4 hours, 30 hours and 52 hours after injection of streptozotocin. Eighteen hours after the last oral treatment, the rats are stunned and decapitated and their crystallins are then withdrawn. After extraction, the level of sorbitol in the crystallins is measured according to the enzymatic method described by H. U. Bergmeyer (Methods of Enzymatic Analysis, edited by H. U. Bergmeyer, Academic Press, New York, 3, p. 1323, 1974).
Various doses of products are tested and the inhibitions are calculated with respect to a control batch of diabetic rats. The dose necessary for a 50% reduction in the level of sorbitol is then evaluated by linear interpolation.

Row | SMILES | IC50 [1] [nM] | ED50 [2] [mg/kg]
1 | O=C(O)Cc1nn(C/C=C/c2cccc(C(F)(F)F)c2F)c(=O)c2ccccc12 [Example B1, (E) -3-[3-[2-fluoro-3-(trifluoromethyl)phenyl]-2-propenyl]-3,4-dihydro-4-oxo-1-phthalazineacetic acid] | 10.2 | 4.8
2 | O=C(O)Cc1nn(C/C=C/c2c(F)c(F)cc(F)c2F)c(=O)c2ccccc12 [Example B43, (E) -3-[3-(2,3,5,6-tetrafluorophenyl)-2-propenyl]-3,4-dihydro-4-oxo-1-phthalazineacetic acid] | 9.6 | 5.8
3 | O=C(O)Cc1nn(C/C=C/c2c(F)ccc(Br)c2F)c(=O)c2ccccc12 [Example B40, (E) -3-[3-(3-bromo-2,6-difluorophenyl)-2-propenyl]-3,4-dihydro-4-oxo-1-phthalazineacetic acid] | 8.2 | 6.1
4 | O=C(O)Cc1nn(C/C(F)=C/c2cccc(C(F)(F)F)c2)c(=O)c2ccccc12 [Example B49, (Z) -3-[2-fluoro-3-[3-(trifluoromethyl)phenyl]-2-propenyl]-3,4-dihydro-4-oxo-1-phthalazineacetic acid] | 8.4 | 8.2
5 | O=C(O)Cc1nn(C/C=C/c2c(F)ccc(F)c2F)c(=O)c2ccccc12 [Example B38, (E) -3-[3-(2,3,6-trifluorophenyl)-2-propenyl]-3,4-dihydro-4-oxo-1-phthalazineacetic acid] | 8.9 | 4.7
6 | O=C(O)Cc1nn(C/C=C/c2c(F)ccc(C(F)(F)F)c2F)c(=O)c2ccccc12 [Example B41, (E) -3-[3-[2,6-difluoro-3-(trifluoromethyl)phenyl]-2-propenyl]-3,4-dihydro-4-oxo-1-phthalazineacetic acid] | 8.6 | 4.4

Reference: patent publication US5489592A, “3,4-dihydro-4-oxo-3-(2-propenyl)-1-phthalazineacetic acids and derivatives, their preparations and medicines containing them” (Lipha, Lyonnaise Industrielle Pharmaceutique, priority 1991, dated 1996)
